Experimental findings from PubChem BioAssay AID330 (DTP/NCI, 2004) are described below.

This assay has as its system P388 leukemia ip, CD2F1 mice, survival T/C. The assay is described as follows: NCI In Vivo Anticancer Drug Screen. Data for tumor model P388 Leukemia (intraperitoneal) in CD2F1 (CDF1) mice. As to conditions: endpoint: median survival time, higher = longer survival. The method in brief: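 Mice carrying the transplanted tumor received test compound or vehicle. Survival was recorded in each group, and the value is the treated-group measurement divided by that of the vehicle-treated control group.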

[1] abbreviates: dose: 50.0 mg/kg/injection, schedule: Q01DX009 (ip), vehicle: Klucel (hydroxypropylcellulose) (HPC).
[2] abbreviates: dose: 100.0 mg/kg/injection, schedule: Q01DX009 (ip), vehicle: Klucel (hydroxypropylcellulose) (HPC).
The mark [3] stands for this setting: dose: 200.0 mg/kg/injection, schedule: Q01DX009 (ip), vehicle: Klucel (hydroxypropylcellulose) (HPC).
Setting [4] is: dose: 100.0 mg/kg/injection, schedule: Q04DX003 (ip), vehicle: saline with Tween-80.
Setting [5] is: dose: 50.0 mg/kg/injection, schedule: Q01DX005 (ip), vehicle: saline with Tween-80.
Setting [6] is: dose: 100.0 mg/kg/injection, schedule: Q01DX005 (ip), vehicle: saline with Tween-80.
Where [7] appears, read: dose: 200.0 mg/kg/injection, schedule: Q01DX005 (ip), vehicle: saline with Tween-80.
The mark [8] stands for this setting: dose: 12.5 mg/kg/injection, schedule: Q01DX005 (ip), vehicle: Klucel (hydroxypropylcellulose) (HPC).

Structures are written as SMILES. “And” between values parts separate entries of the source, which are not always exact repeats. Identical values can stand only once. Inconclusive results and toxic doses are left out.

Regarding `CCOC(=O)C1=C(C(C)=O)C(c2ccccc2[N+](=O)[O-])C(C(C)=O)=C(C(=O)OCC)N1`, the T/C is 104 % of control (dose: 60.0 mg/kg/injection, schedule: Q01DX005 (ip), vehicle: saline); 105 % of control (dose: 120.0 mg/kg/injection, schedule: Q01DX005 (ip), vehicle: saline); 96 % of control (dose: 240.0 mg/kg/injection, schedule: Q01DX005 (ip), vehicle: saline).
`COc1cccc(OC)c1OCCN1C(=O)c2ccccc2C1=O`: the T/C under setting [1] is 100 % of control, the T/C under setting [2] is 100 % of control and the T/C under setting [3] was 105 % of control.
As to `CS(C)=NC(=Nc1ccccc1)c1ccccc1`, the T/C is 101 % of control (dose: 50.0 mg/kg/injection, schedule: Q04DX003 (ip), vehicle: saline with Tween-80) and 104 % of control under setting [4].
For the compound `CCCCN(C)/N=N/c1[nH]ncc1C(=O)OCC`, the T/C runs as follows: (dose: 100.0 mg/kg/injection, schedule: Q01DX009 (ip), vehicle: other) 120 % of control; (dose: 200.0 mg/kg/injection, schedule: Q01DX009 (ip), vehicle: other) 116 % of control.
Turning to `C(=Nc1cccnc1)c1ccc(C=Nc2cccnc2)cc1`, the T/C was 108 % of control (dose: 50.0 mg/kg/injection, schedule: Q01DX009 (ip), vehicle: saline) and 104 % of control (dose: 100.0 mg/kg/injection, schedule: Q01DX009 (ip), vehicle: saline).
With `CC(C)(c1cc(Cl)c(OCCO)c(Cl)c1)c1cc(Cl)c(OCCO)c(Cl)c1`, the T/C runs as follows: under setting [4], 100 % of control; (dose: 200.0 mg/kg/injection, schedule: Q04DX003 (ip), vehicle: saline with Tween-80) 100 % of control; (dose: 400.0 mg/kg/injection, schedule: Q04DX003 (ip), vehicle: saline with Tween-80) 95 % of control.
On to `O=C(O)COc1cccc2c(=O)cc(-c3ccccc3)oc12`, for which the T/C reads like this: (dose: 50.0 mg/kg/injection, schedule: Q01DX005 (ip), vehicle: saline) 102 % of control; (dose: 100.0 mg/kg/injection, schedule: Q01DX005 (ip), vehicle: saline) 101 % of control; (dose: 200.0 mg/kg/injection, schedule: Q01DX005 (ip), vehicle: saline) 99 % of control.
Turning to `Cc1cc(C(=O)NC(C)c2ccc(S(=O)(=O)NC(=O)NC3CCCCC3)cc2)no1` (stereo not given), the T/C is 99 % of control (dose: 50.0 mg/kg/injection, schedule: Q04DX002 (ip), vehicle: Klucel (hydroxypropylcellulose) (HPC)); 100 % of control (dose: 100.0 mg/kg/injection, schedule: Q04DX002 (ip), vehicle: Klucel (hydroxypropylcellulose) (HPC)); 97 % of control (dose: 200.0 mg/kg/injection, schedule: Q04DX002 (ip), vehicle: Klucel (hydroxypropylcellulose) (HPC)).
In the case of `COc1ccc(C2Cc3cc(OC)c(OC)cc3C(c3ccccc3)N2)cc1OC` (stereo not given), the T/C is 86 % of control (dose: 60.0 mg/kg/injection, schedule: Q01DX005 (ip), vehicle: saline with Tween-80); 88 % of control (dose: 120.0 mg/kg/injection, schedule: Q01DX005 (ip), vehicle: saline with Tween-80); 89 % of control (dose: 240.0 mg/kg/injection, schedule: Q01DX005 (ip), vehicle: saline with Tween-80).
For the compound `C=CC(O)CN1CC1` (stereo not given), the T/C is, setting by setting: (dose: 0.75 mg/kg/injection, schedule: Q04DX003 (ip), vehicle: saline) 122 % of control; (dose: 1.25 mg/kg/injection, schedule: Q01DX009 (ip), vehicle: saline) 158 % of control; (dose: 2.5 mg/kg/injection, schedule: Q01DX009 (ip), vehicle: saline) 113 % of control and 212 % of control; (dose: 3.0 mg/kg/injection, schedule: Q04DX003 (ip), vehicle: saline) 181 % of control; (dose: 6.0 mg/kg/injection, schedule: Q04DX003 (ip), vehicle: saline) 154 % of control; (dose: 10.0 mg/kg/injection, schedule: Q04DX003 (ip), vehicle: saline) 154 % of control.
Regarding `COc1cc(O)c(Cc2ccc3c(c2)OCO3)cc1O`, the T/C was 100 % of control (dose: 2.5 mg/kg/injection, schedule: Q01DX009 (ip), vehicle: saline with Tween-80); 100 % of control (dose: 5.0 mg/kg/injection, schedule: Q01DX009 (ip), vehicle: saline with Tween-80); 115 % of control (dose: 10.0 mg/kg/injection, schedule: Q01DX009 (ip), vehicle: saline with Tween-80).
Turning to `O=C1C=CC(=Nc2ccc3[nH]c4ccccc4c3c2)C=C1`, the T/C reads like this: under setting [5], 101 % of control and 92 % of control and 96 % of control; under setting [6], 104 % of control and 93 % of control and 96 % of control; under setting [7], 108 % of control and 121 % of control and 96 % of control; (dose: 400.0 mg/kg/injection, schedule: Q01DX005 (ip), vehicle: saline with Tween-80) 108 % of control.
Consider `OCC1OC(n2ccc3c(NO)ncnc32)C(O)C1O` (stereo not given), for which the T/C (dose: 0.46 mg/kg/injection, schedule: Q01DX005 (ip), vehicle: Klucel (hydroxypropylcellulose) (HPC)) was 112 % of control.
Take `CC1(C)OC2OCC(N=[N+]=[N-])C(O)C2O1` (stereo not given): the T/C by setting is: under setting [5], 113 % of control; under setting [6], 101 % of control; under setting [7], 92 % of control.
As for `CNC(=O)OCc1c(-c2ccccc2)nc2n1CCS2`, the T/C (dose: 12.5 mg/kg/injection, schedule: Q01DX001 (ip), vehicle: Klucel (hydroxypropylcellulose) (HPC)) is 108 % of control; the T/C (dose: 25.0 mg/kg/injection, schedule: Q01DX001 (ip), vehicle: Klucel (hydroxypropylcellulose) (HPC)) is 107 % of control; the T/C (dose: 50.0 mg/kg/injection, schedule: Q01DX001 (ip), vehicle: Klucel (hydroxypropylcellulose) (HPC)) was 113 % of control.
As to `CCS(=O)(=O)C(=O)N1CCN(C(=O)S(=O)(=O)CC)CC1`, the T/C by setting is: under setting [1], 98 % of control; under setting [2], 100 % of control; under setting [3], 106 % of control.
Regarding `Nc1cccc2c1C(=O)c1cccc3snc-2c13`, the T/C reads like this: under setting [8], 102 % of control; (dose: 25.0 mg/kg/injection, schedule: Q01DX005 (ip), vehicle: Klucel (hydroxypropylcellulose) (HPC)) 104 % of control; (dose: 50.0 mg/kg/injection, schedule: Q01DX005 (ip), vehicle: Klucel (hydroxypropylcellulose) (HPC)) 100 % of control and 97 % of control; (dose: 100.0 mg/kg/injection, schedule: Q01DX005 (ip), vehicle: Klucel (hydroxypropylcellulose) (HPC)) 87 % of control.
`COc1cc(Cc2ccc3c(c2)OCO3)cc(OC)c1OC`: the T/C (dose: 100.0 mg/kg/injection, schedule: Q01DX001 (ip), vehicle: saline) is 102 % of control; the T/C (dose: 200.0 mg/kg/injection, schedule: Q01DX001 (ip), vehicle: saline) was 102 % of control; the T/C (dose: 400.0 mg/kg/injection, schedule: Q01DX001 (ip), vehicle: saline) is 99 % of control.
In the case of `CN(C)c1ccc(C(Cl)[O][Sn]([Cl])([c]2ccccc2)[c]2ccccc2)cc1.[CH3][Sn]([CH3])([Cl])[Cl]` (stereo not given), the T/C is, setting by setting: (dose: 1.56 mg/kg/injection, schedule: Q01DX005 (ip), vehicle: saline with Tween-80) 112 % of control; (dose: 3.12 mg/kg/injection, schedule: Q01DX005 (ip), vehicle: saline with Tween-80) 113 % of control and 119 % of control; (dose: 6.25 mg/kg/injection, schedule: Q01DX005 (ip), vehicle: saline with Tween-80) 109 % of control.
Consider `N#CC1=C2CCCCC2(O)NC1=O` (stereo not given), for which the T/C reads like this: (dose: 6.25 mg/kg/injection, schedule: Q01DX005 (ip), vehicle: Klucel (hydroxypropylcellulose) (HPC)) 108 % of control; under setting [8], 115 % of control.
Turning to `COC(=O)C12OCC34C(CC5C(C)=C(O)C(=O)CC5(C)C3C(O)C1O)OC(=O)C(OC(=O)C=C(C)C)C24` (stereo not given), the T/C was 100 % of control (dose: 0.13 mg/kg/injection, schedule: Q01DX009 (ip), vehicle: saline); 100 % of control (dose: 0.25 mg/kg/injection, schedule: Q01DX009 (ip), vehicle: saline); 96 % of control (dose: 0.5 mg/kg/injection, schedule: Q01DX009 (ip), vehicle: saline); 98 % of control (dose: 2.0 mg/kg/injection, schedule: Q01DX009 (ip), vehicle: saline); 100 % of control (dose: 4.0 mg/kg/injection, schedule: Q01DX009 (ip), vehicle: saline); 104 % of control (dose: 125.0 micrograms/kg/injection, schedule: Q01DX009 (ip), vehicle: saline + alcohol). The T/C was 102 % of control (dose: 250.0 micrograms/kg/injection, schedule: Q01DX009 (ip), vehicle: saline + alcohol); 104 % of control (dose: 500.0 micrograms/kg/injection, schedule: Q01DX009 (ip), vehicle: saline + alcohol); 95 % of control (dose: 1000.0 micrograms/kg/injection, schedule: Q01DX009 (ip), vehicle: saline + alcohol); 93 % of control (dose: 2000.0 micrograms/kg/injection, schedule: Q01DX009 (ip), vehicle: saline + alcohol); 102 % of control (dose: 4000.0 micrograms/kg/injection, schedule: Q01DX009 (ip), vehicle: saline + alcohol).
